In patent US6841530B2, “Semi-synthetic studies toward didemnin analogues” (The Board of Trustees of the University of Illinois, priority 1996, dated 2005):
Values after ≈ are worked out from the molar mass of the structure shown. Starred links: 1 amine or outer side, 2 acyl side, 3 side chain; linkers in the order of their positions; H or OH if unused. Positions of bridges follow the written chain, without caps; N, C: chain ends. Non-standard residues stand in square brackets, D forms with d. Residues, ends and D or L forms follow the SMILES beside them. *: point of attachment. X1 = CC[C@H](C)[C@@H](N[*:1])[C@@H](O)CC(=O)O[C@H](C(=O)[C@H](C)C(=O)[*:2])C(C)C; NMeY = CN[C@@H](Cc1ccc(O)cc1)C(=O)O; dNMeL = CN[C@H](CC(C)C)C(=O)O; pGlu = O=C1CC[C@@H](C(=O)O)N1; Pyruvoyl = CC(=O)C(=O)*; Cbz = O=C(OCc1ccccc1)*; Boc = CC(C)(C)OC(=O)*; Lac = C[C@H](O)C(=O)O

Columns and labels:
[1] = Cytotoxicity of didemnins (Table II); type: cell-based; settings: for IC50: cytotoxicity
CV-1 = experiment: Cytotoxicity score in the HSV/CV-1 antiviral assay; settings: scale 0 (least toxic) to 16 (toxic)
HSV = experiment: Antiviral activities of didemnins, HSV/CV-1; type: cell-based; parameters: key: +++ = complete inhibition; ++ = strong inhibition; + = moderate inhibition; − = no inhibition
P388 Murine Leukemia = experiment: Life extension vs. P388 murine leukemia in mice; type: in vivo

Row | Structure (SMILES) | Inhibition (%) ([1]; Dose 0.25 ng/mL) | Inhibition (%) ([1]; Dose 2.5 ng/mL) | Inhibition (%) ([1]; Dose 25 ng/mL) | Inhibition (%) ([1]; Dose 250 ng/mL) | IC50 [1] | Cytotoxocity (CV-1; 10 ng/mL) | Cytotoxocity (CV-1; 20 ng/mL) | Cytotoxocity (CV-1; 50 ng/mL) | Cytotoxocity (CV-1; 100 ng/mL) | Activity (HSV; 10 ng/mL) | Activity (HSV; 20 ng/mL) | Activity (HSV; 50 ng/mL) | Activity (HSV; 100 ng/mL) | T/C (% of Control, Life Extension) (P388 Murine Leukemia; Dose 0.025 mg/kg) | T/C (% of Control, Life Extension) (P388 Murine Leukemia; Dose 0.05 mg/kg) | T/C (% of Control, Life Extension) (P388 Murine Leukemia; Dose 1 mg/kg)
1 | CC[C@H](C)[C@H]1NC(=O)[C@@H](NC(=O)[C@@H](CC(C)C)N(C)C(=O)[C@@H]2CCCN2C(=O)OC(C)(C)C)[C@@H](C)OC(=O)[C@H](Cc2ccc(OC)cc2)N(C)C(=O)[C@@H]2CCCN2C(=O)[C@H](CC(C)C)NC(=O)[C@@H](C)C(=O)[C@H](C(C)C)OC(=O)C[C@@H]1O [Boc-Pro-didemnin A (158), Boc-L-prolyl-didemnin A] (Boc-P[dNMeL]T[X1]LP[NMeY](Me); ester 3-C) | 0% | 0% | 55% | 100% | 85 ng/mL (≈ 74.5 nM) |  |  |  |  |  |  |  |  |  |  | 
2 | CC[C@H](C)[C@H]1NC(=O)[C@@H](NC(=O)[C@@H](CC(C)C)N(C)C(=O)[C@@H]2CCCN2C(=O)[C@H](C)OC(=O)[C@H](CCC(N)=O)NC(=O)OCc2ccccc2)[C@@H](C)OC(=O)[C@H](Cc2ccc(OC)cc2)N(C)C(=O)[C@@H]2CCCN2C(=O)[C@H](CC(C)C)NC(=O)[C@@H](C)C(=O)[C@H](C(C)C)OC(=O)C[C@@H]1O [Cbz-Gln-Didemnin B (161), N-Benzyloxycarbonyl-L-glutaminyl-didemnin B] (Cbz-Q[Lac]P[dNMeL]T[X1]LP[NMeY](Me); ester 5-C) | 0% | 0% | 87% | 100% | 25 ng/mL (≈ 18.2 nM) | 0 | 0 | 0 | 0 | − | + | + | + |  |  | 
3 | CC[C@H](C)[C@H]1NC(=O)[C@@H](NC(=O)[C@@H](CC(C)C)N(C)C(=O)[C@@H]2CCCN2C(=O)[C@H](C)OC(=O)[C@H](CCC(N)=O)NC(=O)OCc2ccccc2)[C@@H](C)OC(=O)[C@H](Cc2ccc(OC)cc2)N(C)C(=O)[C@@H]2CCCN2C(=O)[C@H](CC(C)C)NC(=O)[C@@H](C)C(=O)[C@H](C(C)C)OC(=O)C[C@@H]1OC(=O)[C@H](CCC(N)=O)NC(=O)OCc1ccccc1 [Cbz-Gln[Cbz-GlnIst^2]DB (162), di-(benzyloxycarbonyl)glutaminyl-didemnin B] | 0% | 0% | 87% | 99% | 50 ng/mL (≈ 30.5 nM) | 0 | 0 | 0 | 0 | + | + | + | +++ |  |  | 
4 | CC[C@H](C)[C@H]1NC(=O)[C@@H](NC(=O)[C@@H](CC(C)C)N(C)C(=O)[C@@H]2CCCN2C(=O)[C@H](C)OC(=O)[C@@H]2CCC(=O)N2C(=O)OCc2ccccc2)[C@@H](C)OC(=O)[C@H](Cc2ccc(OC)cc2)N(C)C(=O)[C@@H]2CCCN2C(=O)[C@H](CC(C)C)NC(=O)[C@@H](C)C(=O)[C@H](C(C)C)OC(=O)C[C@@H]1O [Cbz-pGlu-Didemnin B (145), N-Benzyloxycarbonyl-L-pyroglutaminyl-didemnin B] | 0% | 0% | 70% | 100% | 50 ng/mL (≈ 36.8 nM) | 0 | 0 | 0 | 0 | − | + | + | + |  |  | 
5 | CC[C@H](C)[C@H]1NC(=O)[C@@H](NC(=O)[C@@H](CC(C)C)N(C)C(=O)[C@@H]2CCCN2C(=O)C(C)=O)[C@@H](C)OC(=O)[C@H](Cc2ccc(OC)cc2)N(C)C(=O)[C@@H]2CCCN2C(=O)[C@H](CC(C)C)NC(=O)[C@@H](C)C(=O)[C@H](C(C)C)OC(=O)C[C@@H]1O [Dehydrodidemnin B (6), Dehydrodidemnin B] (Pyruvoyl-P[dNMeL]T[X1]LP[NMeY](Me); ester 3-C) | 95% | 100% | 100% | 100% | 0.2 ng/mL (≈ 0.18 nM) | 0 | 0 | 16 | 16 | + | +++ |  |  |  |  | 
6 | CC[C@H](C)[C@H]1NC(=O)[C@@H](NC(=O)[C@@H](CC(C)C)N(C)C(=O)[C@@H]2CCCN2C(=O)C(C)O)[C@@H](C)OC(=O)[C@H](Cc2ccc(OC)cc2)N(C)C(=O)[C@@H]2CCCN2C(=O)[C@H](CC(C)C)NC(=O)[C@@H](C)C(=O)[C@H](C(C)C)OC(=O)C[C@@H]1O (stereo partly shown) [Didemnin (B) (2), Didemnin B, reference compound] | 0% | 40% | 100% | 100% | 7 ng/mL (≈ 6.29 nM) | 0 | 0 | 0 | 16 | + | +++ | +++ |  |  |  | 
7 | CC[C@H](C)[C@H]1NC(=O)[C@@H](NC(=O)[C@@H](CC(C)C)NC)[C@@H](C)OC(=O)[C@H](Cc2ccc(OC)cc2)N(C)C(=O)[C@@H]2CCCN2C(=O)[C@H](CC(C)C)NC(=O)[C@@H](C)C(=O)[C@H](C(C)C)OC(=O)C[C@@H]1O [Didemnin A (1), Didemnin A] (H-[dNMeL]T[X1]LP[NMeY](Me); ester 2-C) | 0% | 0% | 70% | 100% | 75 ng/mL (≈ 79.5 nM) | 0 | 0 | 0 | 0 | − | + | + | + |  |  | 
8 | CC[C@H](C)[C@H]1NC(=O)[C@@H](NC(=O)[C@@H](CC(C)C)N(C)C(=O)[C@@H]2CCCN2C(=O)[C@H](C)OC(=O)[C@H](CCC(N)=O)NC(=O)[C@@H]2CCC(=O)N2)[C@@H](C)OC(=O)[C@H](Cc2ccc(OC)cc2)N(C)C(=O)[C@@H]2CCCN2C(=O)[C@H](CC(C)C)NC(=O)[C@@H](C)C(=O)[C@H](C(C)C)OC(=O)C[C@@H]1O [Didemnin M (5), L-Pyroglutaminyl-L-glutaminyl-didemnin B] ([pGlu]Q[Lac]P[dNMeL]T[X1]LP[NMeY](Me); ester 6-C) | 94% | 100% | 100% | 100% | 0.8 ng/mL (≈ 0.592 nM) | 0 | 0 | 16 | 16 | + | +++ |  |  |  |  | 
9 | CC[C@H](C)[C@H]1NC(=O)[C@@H](NC(=O)[C@@H](CC(C)C)N(C)C(=O)[C@@H]2CCCN2C(=O)[C@H](C)OC(=O)[C@@H](N)CCC(N)=O)[C@@H](C)OC(=O)[C@H](Cc2ccc(OC)cc2)N(C)C(=O)[C@@H]2CCCN2C(=O)[C@H](CC(C)C)NC(=O)[C@@H](C)C(=O)[C@H](C(C)C)OC(=O)C[C@@H]1O [Gln-Didemnin B, Glutaminyl-didemnin B] (H-Q[Lac]P[dNMeL]T[X1]LP[NMeY](Me); ester 5-C) | 94% | 100% | 100% | 100% | 0.1 ng/mL (≈ 0.0806 nM) | 0 | 16 | 16 | 16 | +++ |  |  |  | 152 % of Control | 171 % of Control | 185 % of Control
10 | CC[C@H](C)[C@H]1NC(=O)[C@@H](NC(=O)[C@@H](CC(C)C)N(C)C(=O)[C@@H]2CCCN2C(=O)[C@H](C)OC(=O)[C@@H](N)CCC(N)=O)[C@@H](C)OC(=O)[C@H](Cc2ccc(OC)cc2)N(C)C(=O)[C@@H]2CCCN2C(=O)[C@H](CC(C)C)NC(=O)[C@@H](C)C(=O)[C@H](C(C)C)OC(=O)C[C@@H]1OC(=O)[C@@H](N)CCC(N)=O [Gln[GlnIst^2]-Didemnin B (160), Glutaminyl-glutaminyl-didemnin B] | 0% | 0% | 87% | 100% | 50 ng/mL (≈ 36.5 nM) | 0 | 0 | 0 | 0 | + | + | + | +++ |  |  | 
11 | CC[C@H](C)[C@H]1NC(=O)[C@@H](NC(=O)[C@@H](CC(C)C)N(C)C(=O)[C@@H]2CCCN2)[C@@H](C)OC(=O)[C@H](Cc2ccc(OC)cc2)N(C)C(=O)[C@@H]2CCCN2C(=O)[C@H](CC(C)C)NC(=O)[C@@H](C)C(=O)[C@H](C(C)C)OC(=O)C[C@@H]1O [Prolyl-didemnin A (43), prolyl-didemnin A] (H-P[dNMeL]T[X1]LP[NMeY](Me); ester 3-C) | 30% | 40% | 99% | 100% | 12 ng/mL (≈ 11.5 nM) |  |  |  |  |  |  |  |  |  |  | 
12 | CC[C@H](C)[C@H]1NC(=O)[C@@H](NC(=O)[C@@H](CC(C)C)N(C)C(=O)[C@@H]2CCCN2C(=O)[C@H](C)OC(=O)[C@@H]2CCC(=O)N2)[C@@H](C)OC(=O)[C@H](Cc2ccc(OC)cc2)N(C)C(=O)[C@@H]2CCCN2C(=O)[C@H](CC(C)C)NC(=O)[C@@H](C)C(=O)[C@H](C(C)C)OC(=O)C[C@@H]1O [pGlu-Didemnin B (39), L-Pyroglutaminyl-didemnin B] ([pGlu][Lac]P[dNMeL]T[X1]LP[NMeY](Me); ester 5-C) | 94% | 100% | 100% | 100% | 0.1 ng/mL (≈ 0.0817 nM) | 0 | 0 | 16 | 16 | + | +++ |  |  |  |  | 
